According to article PMC11284788, “NN1213 – A Potent, Long-Acting, and Selective Analog of Human Amylin” (Journal of Medicinal Chemistry, 2024):
Where two headings read alike, the source gives them in different places. Numbered stars: 1 amine (or outer) side, 2 acyl side, 3 side chain; on linkers, the order of the positions; unused ones are H or OH. Bridge positions count the residues as written; N and C are the ends. Peptide text beside a SMILES is read from it. * marks the point of attachment. C20 diacid = O=C(O)CCCCCCCCCCCCCCCCCCC(=O)*; γGlu = O=C(O)[C@H](CCC(=O)[*:2])N[*:1]

Legend:
rat AMY3R = target: T1, rat AMY3R (Rattus norvegicus, UniProt P32214+Q9JJ73); experiment: cAMP FlashPlate assay, rat AMY3R; format: cell-based; conditions: for EC50: cAMP (rat receptor assay)
T1 construct: expressed in transfected cells; host or cells: BHK tk-ts 13, transient co-transfection (FuGENE 6)
T1 sequence (P32214 25-479 isoform P32214-2 limits assumed): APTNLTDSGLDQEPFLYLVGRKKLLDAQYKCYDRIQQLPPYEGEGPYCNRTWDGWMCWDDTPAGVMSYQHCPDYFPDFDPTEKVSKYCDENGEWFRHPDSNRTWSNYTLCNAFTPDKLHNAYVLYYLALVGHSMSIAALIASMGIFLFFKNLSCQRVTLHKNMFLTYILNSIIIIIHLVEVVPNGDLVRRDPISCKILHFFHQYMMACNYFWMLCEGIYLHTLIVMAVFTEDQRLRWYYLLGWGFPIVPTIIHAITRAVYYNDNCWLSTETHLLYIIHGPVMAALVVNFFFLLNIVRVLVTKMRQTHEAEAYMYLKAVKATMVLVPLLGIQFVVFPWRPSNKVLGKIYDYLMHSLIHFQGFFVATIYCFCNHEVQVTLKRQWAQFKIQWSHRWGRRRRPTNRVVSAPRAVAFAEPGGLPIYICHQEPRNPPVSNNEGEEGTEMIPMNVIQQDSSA
T1 sequence (Q9JJ73 23-147 partner): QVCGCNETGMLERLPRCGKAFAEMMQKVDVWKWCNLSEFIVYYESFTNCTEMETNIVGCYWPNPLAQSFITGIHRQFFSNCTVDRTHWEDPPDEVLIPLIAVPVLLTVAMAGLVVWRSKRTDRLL

rCTR = target: T2, rCTR (Rattus norvegicus, UniProt P32214); experiment: scintillation proximity binding assay, rCTR membranes
T2 construct: expressed in transfected cells; host or cells: BHK tk-ts 13, transient (FuGENE 6)
T2 sequence (P32214 25-479 isoform P32214-2 limits assumed): T1 sequence (P32214 25-479 isoform P32214-2 limits assumed)
Procedure: The apparent binding affinities were determined using a scintillation proximity assay with beads from PerkinElmer and cell membranes containing the AMY3R or CTRs. […] Membranes were harvested and membranes were prepared and kept at −80 °C until use. The assay was performed in a 384-well Optiplate (PerkinElmer). Membranes were mixed with scintillation proximity assay beads in a 1:1 ratio. […] Samples were analyzed on a TopCounter (Packard). The IC50 values were calculated using GraphPad Prism. See Supporting Information S7: SAR Screening Assay Methods (Binding Assays (Human and Rat)) for more information.
Binding Assays (Human and Rat). Brief descriptions of the methods used to determine binding affinities for SAR analysis are described below. Curves and IC50 values were plotted and calculated in GraphPad Prism using nonlinear regression (one site binding competition analysis), with pIC50 values […]
values were used to calculate the binding affinity ratios in order to express the selectivity of compounds for the AMY3R versus the CTR.
CTR Binding Assay. The binding assay was performed using scintillation proximity assay (SPA) beads (RPNQ0001) from PerkinElmer and cell membranes containing either the hCTR or rCTR. BHK […]
Membranes were prepared in the following way: the cells were rinsed with PBS and incubated with Versene for approximately 5 min before harvesting. The cells were flushed with PBS and the cell-suspension was centrifuged for 5 min at 1000 rpm. Cells were homogenized (Ultra Turrax) in a buffer […]
containing 20 mM Na-HEPES and 0.1 mM EDTA (pH 7.4, buffer 2). The resulting pellet was re-suspended in buffer 2 and protein concentration was measured (BCA protein assay, Pierce). The homogenate was kept cold during the whole procedure. The membranes were stored at –80 °C until […]
The binding assay was performed in a 384-well Optiplate (PerkinElmer) in a total volume of 40 μL.
Membranes were mixed with SPA beads in a 1:1 ratio. […]
mg/well. Test compounds were dissolved in DMSO and further diluted in assay buffer (50 mM HEPES, pH 7.4, 1 mM CaCl2, 5 mM MgCl2, 0.1% ovalbumin, and 0.02% Tween-20).
Calcitonin (NEX422 PerkinElmer) was dissolved in assay buffer and added to the Optiplate at a final […]
prior to centrifugation (1500 rpm, 10 min). Samples were analyzed on TopCounter (Packard).

rat CTR = target: T3, rat CTR (Rattus norvegicus, UniProt P32214); experiment: cAMP FlashPlate assay, rat CTR; format: cell-based; conditions: cAMP (rat receptor assay)
T3 construct: expressed in transfected cells; host or cells: BHK tk-ts 13, transient (FuGENE 6)
T3 sequence (P32214 25-479 isoform P32214-2 limits assumed): T1 sequence (P32214 25-479 isoform P32214-2 limits assumed)

With `CC[C@H](C)[C@H](NC(=O)[C@H](C)NC(=O)CNC(=O)[C@H](Cc1ccccc1)NC(=O)[C@H](CC(N)=O)NC(=O)[C@@H]1CCCN1C(=O)[C@H](CO)NC(=O)[C@H](CO)NC(=O)[C@H](Cc1c[nH]cn1)NC(=O)[C@H](CCCNC(=N)N)NC(=O)[C@H](CC(C)C)NC(=O)[C@H](Cc1ccccc1)NC(=O)[C@H](CC(N)=O)NC(=O)[C@H](C)NC(=O)[C@H](CC(C)C)NC(=O)[C@H](CCCNC(=N)N)NC(=O)[C@H](CCC(N)=O)NC(=O)[C@@H](NC(=O)[C@H](C)NC(=O)[C@@H]1CSSC[C@H](NC(=O)[C@H](CCCCN)NC(=O)CC[C@H](NC(=O)CCCCCCCCCCCCCCCCCCC(=O)O)C(=O)O)C(=O)N[C@@H](CC(N)=O)C(=O)N[C@@H]([C@@H](C)O)C(=O)N[C@@H](C)C(=O)N[C@@H]([C@@H](C)O)C(=O)N1)[C@@H](C)O)C(=O)N1CCC[C@H]1C(=O)N[C@@H](CO)C(=O)N[C@@H](CO)C(=O)N[C@H](C(=O)N1CCC[C@H]1C(=O)N[C@H](C(=O)NCC(=O)N[C@@H](CO)C(=O)N[C@@H](CCC(=O)O)C(=O)N[C@H](C(=O)N[C@@H](Cc1ccc(O)cc1)C(N)=O)[C@@H](C)O)C(C)C)[C@@H](C)O` [Peptide 11] ({C20 diacid-γGlu}-KCNTATCATQRLANFLRHSSPNFGAIPSSTPVGSETY-NH2; disulfide 2-7) the EC50 (rat AMY3R; Tables S12 and S14, read-out: rAMY3R pEC50 (converted)) was 1.29 nM, the EC50 (rat AMY3R; transiently transfected BHK tk-ts 13 cells, FlashPlate, 30 min room temperature, 2% HSA, read-out: rAMY3R EC50) was 1.29 nM and the “ratio rCTR/rAMY3R” value (rat AMY3R; ratio of cAMP EC50 values) was 13. The IC50 (rCTR; SPA binding assay, Tables S13 and S15, read-out: rCTR pIC50 (converted)) was 51.3 nM, the IC50 (rCTR; SPA, BHK cell membranes, 125I-Calcitonin 75 pM, 120 min 25 °C, read-out: rCTR IC50) was 51.4 nM and the EC50 (rat CTR; Tables S12 and S14, read-out: rCTR pEC50 (converted)) was 16.2 nM. The EC50 (rat CTR; transiently transfected BHK tk-ts 13 cells, FlashPlate, 30 min room temperature, 2% HSA, read-out: rCTR EC50) was 16.2 nM.
